This passage reports DC50 results from patent publication US20250051282A1, “COMPOUNDS FOR TREATING POLYQ-RELATED NEURODEGENERATIVE DISORDERS” (HANGZHOU JIJING PHARMACEUTICAL TECHNOLOGY LIMITED, priority 2021, published 2025).

Counter-ions that a name gives are not always drawn.

The assay has as its system ATXN1(60Q). Description: Daoy-ATXN1(60Q)-mATXN1 MSD assay (CTG normalized). It is filed as cell-based. The settings on record: Daoy-Flag-ATXN1(60Q) stable cells, compound added Day 2, lysis Day 3, final DMSO 0.3%, read-out: Daoy-ATXN1(60Q)-mATXN1 MSD (CTG normalized) DC50. The method, then: Protocol for MSD Assay: Daoy-ATXN1(600)-mATXN1 MSD (CTG normalized)
The Flag-ATXN1(60Q) gene is synthesized by Genescript and cloned into the pLVX-IRES-Puro vector (Takarabio, catalog No. 632183) using EcoRI/BamHI restriction enzyme sites. Lentivirus is made by transfecting HEK293T cells with pLVX-IRES-Puro-Flag-ATXN1(60Q) plasmids and packaging plasmids psPAX2 and pMD2.G at 4:3:1 ratio (8:6:[…], respectively) in 10 cm plates, and are harvested at 48 hours post transfection. Daoy cells (ATCC catalog No. HTB-186) seeded in T25 flasks are infected with the lentivirus in the presence of 8 µg/mL polybrene (Sigma, TR-1003-G) for 24 hours. 48 hours post infection, the cells are selected using 0.5 […] (Sigma, P8833) for more than 5 days until all cells in the uninfected group die. The expression of Flag-ATXN1(60Q) is verified by anti-Flag immunoblot using anti-Flag antibody (Sigma, F1804-200UG, M2).
As explained above, Daoy-Flag-ATXN1(60Q) cells are prepared as a stable cell line by infecting Daoy cells with lentivirus. The media for the cells is EMEM (ATTC, 30-2008) with 10% fetal bovin serum (FBS).
On Day 1, the Daoy-Flag-ATXN1(60Q) cells are seeded in a 96 well plate at a concentration of 1.2×10^4/well. On Day 2, the cells are treated with test compounds at test concentrations (compounds are serially diluted with DMSO to obtain test concentrations, such that final DMSO concentration is 0.3%). On Day 3, the cells are washed with 100 μL of phosphate-buffered saline (PBS) per well, and then 30 μL of radioimmuno-precipitation assay (RIPA) buffer (with protease and phosphatase inhibitor cocktail) is added to each well.
The well plate is then cooled on ice for 30 minutes in order to complete lysis, and MSD samples are prepared using 10 μL of Daoy-Flag-ATXN1-60Q lysate and 90 μL of RIPA buffer with gentle mixing. Each MSD sample has a total volume of 100 μL, and is used immediately or stored at −80° C.
A standard Meso Scale Discovery (MSD) plate is coated with anti-Flag (Sigma, F1804-200UG, M2) in PBS at 1:500 dilution ratio and 40 µL/well, and is incubated at 4° C. overnight with shaking at 600 rpm. Then, the MSD plate is washed 3 times with 150 µL/well of 1X TBST (tris-buffered saline (TBS) with Tween 20) buffer, and the MSD plate is blocked with 150 μL of blocking buffer [3% Blocker A in 1X TBST, (3 g Blocker A per 100 mL 1X TBST)] and shaken for 1 hour at 600 rpm at room temperature. Then, the MSD plate is washed three times with 150 μL/well of 1X TBST. Next, the diluted lysate samples (from Sample Preparation above) are added to the MSD plate at 25 μL/well, and the MSD plate is shaken at 600 rpm for 1 hour at room temperature. Then the MSD plate is washed 3 times with 150 μL/well of 1X TBST.
Detection antibody anti-Ataxin 1 (G-bio, ITA1916) (1:500), which is prepared in antibody detection buffer (1% Blocker A in 1X TBST), is then added to the MSD plate at 25 µL/well, and the MSD plate is shaken at 600 rpm for 1 hour at room temperature. The MSD plate is then washed three times with 150 μL/well of 1X TBST. Next, a secondary detection antibody, Goat anti-rabit (GAR) with SULFO-TAG (1:500), which is prepared in antibody detection buffer (1% Blocker A in 1X TBST), is added at 25 μL/well and the MSD plate is shaken at 600 rpm for 1 hour at room temperature. Then the MSD plate is washed 3 times with 150 μL/well of 1X TBST, and 2X MSD reading buffer is added at 150 μL/well (diluted from 4x MSD reading buffer with water). Finally, the signal from each well is measured on the MSD Meso QuickPle SQ120 Plate Reader. DC50 data is calculated using collaborate drug discovery (CDD) software (https://www.collaborativedrug.com/about).
Turning to `NCCN/C(=C1\C(=O)Nc2ccc(Br)cc21)c1cc(N)ccc1F` [Example 32, (Z)-3-((5-amino-2-fluorophenyl)((2-aminoethyl)amino)methylene)-5-bromo indolin-2-one], the DC50 was less than 10 µM. Turning to `O=C1Nc2ccc(Br)cc2/C1=C(/NCCCF)c1cccc(C(F)F)c1` [Example 20, (Z)-5-bromo-3-((3-(difluoromethyl)phenyl)((3-fluoropropyl)amino)methylene) indolin-2-one], the DC50 was less than 10 µM.

For the molecule `Cn1cc(N/C(=C2\C(=O)Nc3ccc(Br)cc32)c2cccc(O)c2)cn1` [Example 71, (Z)-5-bromo-3-((3-hydroxyphenyl)((1-methyl-1H-pyrazol-4-yl)amino)methylene)indolin-2-one], the DC50 was less than 10 µM.

For the molecule `O=C1Nc2ccc(Br)cc2/C1=C(/Nc1cccnn1)c1cccc(O)c1` [Example 73, (Z)-5-bromo-3-((3-hydroxyphenyl) (pyridazin-3-ylamino)methylene)indolin-2-one], the DC50 was less than 10 µM. With `O=C1Nc2ccc(Br)cc2/C1=C(/Nc1c[nH]cn1)c1cccc(O)c1` [Example 17, (Z)-3-(((1H-imidazol-4-yl)amino)(3-hydroxyphenyl)methylene)-5-bromoindolin-2-one] the figure was less than 10 µM; with `Cn1cc(N/C(=C2\C(=O)Nc3ccc(Br)cc32)c2ccccc2)cn1` [Example 22, (Z)-5-bromo-3-(((1-methyl-1H-pyrazol-4-yl)amino)(phenyl)methylene)indolin-2-one], 10 to 30 µM; with `NCCOCCOCCOCCN/C(=C1\C(=O)Nc2ccc(Br)cc21)c1cccc(O)c1` [Example 36, (Z)-3-(13-amino-1-(3-hydroxyphenyl)-5,8,11-trioxa-2-azatridecylidene)-5-bromoindolin-2-one], 10 to 30 µM. As to `O=C1Nc2ccc(Br)cc2/C1=C(/Nc1cnn(CCO)c1)c1ccccc1` [Example 53, (Z)-5-bromo-3-(((1-(2-hydroxyethyl)-1H-pyrazol-4-yl)amino)(phenyl)methylene)indolin-2-one], the DC50 was in the range of 10 to 30 µM. The same measure for `O=C1Nc2ccc(Br)cc2/C1=C(/Nc1ccc(C(=O)O)cc1)c1cccc(O)c1` [Example 74, (Z)-4-(((5-bromo-2-oxoindolin-3-ylidene)(3-hydroxyphenyl)methyl)amino)benzoic acid]: 10 to 30 µM. The same measure for `NC(=C1C(=O)Nc2ccc(Br)cc21)C1COc2ccccc2O1` (stereo not drawn) [Example 79, 3-(Amino(2,3-dihydrobenzo[b] [1,4]dioxin-2-yl)methylene)-5-bromoindolin-2-one]: greater than 30 µM. For `O=C1Nc2ccc(Br)cc2/C1=C(/Nc1cccnn1)c1ccccc1` [Example 44, (Z)-5-bromo-3-(phenyl(pyridazin-3-ylamino)methylene) indolin-2-one], the DC50 is greater than 30 µM. `O=C1Nc2ccc(Br)cc2/C1=C(/NC1CCNCC1)c1cccc(O)c1` [Example 25, (Z)-5-bromo-3-((3-hydroxyphenyl) (piperidin-4-ylamino)methylene) indolin-2-one]: the DC50 was less than 10 µM. In the case of `O=C1Nc2ccc(Br)cc2/C1=C(/Nc1ccnnc1)c1cccc(F)c1` [Example 40, (Z)-5-bromo-3-((3-fluorophenyl)(pyridazin-4-ylamino)methylene) indolin-2-one], the DC50 is less than 10 µM. As for `CN1CC(N/C(=C2\C(=O)Nc3ccc(Br)cc32)c2cccc(O)c2)C1` [Example 9, (Z)-5-bromo-3-((3-hydroxyphenyl)((1-methylazetidin-3-yl)amino)methylene) indolin-2-one], the DC50 is less than 10 µM. With `O=C1Nc2ccc(Br)cc2/C1=C(/Nc1cn[nH]c1)c1cccc(O)c1` [Example 70, (Z)-3-(((1H-pyrazol-4-yl)amino)(3-hydroxyphenyl)methylene)-5-bromoindolin-2-one] the figure was less than 10 µM; with `O=C1Nc2ccc(Br)cc2/C1=C(/NCCCF)c1ccccc1` [Example 19, (Z)-5-bromo-3-(((3-fluoropropyl)amino) (phenyl)methylene) indolin-2-one], less than 10 µM; with `NCCN/C(=C1\C(=O)Nc2ccc(Br)cc21)c1ccccc1` [Example 28, (Z)-3-(((2-aminoethyl)amino) (phenyl)methylene)-5-bromoindolin-2-one], 10 to 30 µM. With `N/C(=C1\C(=O)Nc2ccc(Br)cc21)c1ccncc1` [Example 77, (Z)-3-(amino (pyridin-4-yl)methylene)-5-bromoindolin-2-one] the figure was less than 10 µM. The same measure for `NCCN/C(=C1\C(=O)Nc2ccc(Br)cc21)c1ccc2[nH]c(=O)oc2c1` [Example 57, (Z)-6-(((2-aminoethyl)amino)(5-bromo-2-oxoindolin-3-ylidene)methyl) benzo[d]oxazol-2(3H)-one]: 10 to 30 µM; for `N#Cc1n[nH]cc1N/C(=C1\C(=O)Nc2ccc(Br)cc21)c1ccccc1` [Example 48, (Z)-4-(((5-bromo-2-oxoindolin-3-ylidene)(phenyl)methyl)amino)-1H-pyrazole-3-carbonitrile]: greater than 30 µM; for `O=C1Nc2ccc(Br)cc2/C1=C(/Nc1cncs1)c1ccccc1` [Example 49, (Z)-5-bromo-3-(phenyl(thiazol-5-ylamino)methylene)indolin-2-one]: greater than 30 µM.

For `O=C1Nc2ccc(Br)cc2/C1=C(/NCCCF)c1cccc(O)c1` [Example 6, (Z)-5-bromo-3-(((3-fluoropropyl)amino) (3-hydroxyphenyl)methylene)indolin-2-one], the DC50 was less than 10 µM. With `O=C1Nc2ccc(Br)cc2/C1=C(/NC1CCC1)c1cccc(O)c1` [Example 8, (Z)-5-bromo-3-((cyclobutylamino) (3-hydroxyphenyl)methylene)indolin-2-one] the figure was less than 10 µM; with `O=C1Nc2ccc(Br)cc2/C1=C(/NC1CCNC1)c1cccc(O)c1` (stereo not drawn) [Example 24, (Z)-5-bromo-3-((3-hydroxyphenyl) (pyrrolidin-3-ylamino)methylene) indolin-2-one formate], greater than 30 µM; with `O=C1Nc2ccc(Br)cc2/C1=C(/Nc1cncnc1)c1ccccc1` [Example 45, (Z)-5-bromo-3-(phenyl(pyrimidin-5-ylamino)methylene) indolin-2-one], less than 10 µM. The same measure for `O=C1Nc2ccc(Br)cc2/C1=C(/Nc1ccnnc1)c1cccc(C(F)F)c1` [Example 41, (Z)-5-bromo-3-((3-(difluoromethyl)phenyl)(pyridazin-4-ylamino)methylene) indolin-2-one]: less than 10 µM.

In the case of `N/C(=C1\C(=O)Nc2ccc(Br)cc21)c1cc(O)c(Br)cn1` [Example 83, (Z)-3-(amino(5-bromo-4-hydroxypyridin-2-yl)methylene)-5-bromoindolin-2-one], the DC50 is greater than 30 µM. The same measure for `N/C(=C1\C(=O)Nc2ccc(Br)cc21)c1cc(C(F)F)ccn1` [Example 75, (Z)-3-(amino(4-(difluoromethyl)pyridin-2-yl)methylene)-5-bromo indolin-2-one]: 10 to 30 µM; for `N/C(=C1\C(=O)Nc2ccc(Br)cc21)c1cncc(O)c1` [Example 84, (Z)-3-(amino(5-hydroxypyridin-3-yl)methylene)-5-bromoindolin-2-one]: less than 10 µM; for `O=C1Nc2ccc(Br)cc2/C1=C(/NC1CNC1)c1ccccc1` [Example 35, (Z)-3-((azetidin-3-ylamino)(phenyl)methylene)-5-bromo indolin-2-one]: less than 10 µM.
